From US9149040B2, “Synergistic pesticidal compositions and related methods” (Dow AgroSciences LLC, priority 2013, dated 2015)

System: diamondback moth, Plutella xylostella
Assay: Diamondback moth bioassay on track-sprayed cabbage plants/leaf discs, percent control
Assay type: in vivo
Procedure: Three second-instar diamondback moth, Plutella xylostella, were infested onto each leaf disc. […] The “Colby's Expected Action” was calculated using Colby's equation as discussed previously.

Structure (SMILES)	% Control Three Days After Treatment (compound I alone, dose rate 0.000625 weight %) [%]	% Control Three Days After Treatment (compound I alone, dose rate 0.000625 weight %, listed as compound I)	% Control Three Days After Treatment (compound I alone, dose rate 0.0025 weight %, second-instar larvae, 400 L/Ha spray)	% Control Three Days After Treatment (flonicamid alone, dose rate 0.000039 weight %) [%]	% Control Three Days After Treatment (flonicamid alone, dose rate 0.000156 weight %) [%]
CCN(C(=O)CCSCCC(F)(F)F)c1cn(-c2cccnc2)nc1Cl [Compound I, N-(3-chloro-1-(pyridin-3-yl)-1H-pyrazol-4-yl)-N-ethyl-3-((3,3,3-trifluoropropyl)thio)propanamide]	0	no control	no control		
N#CCNC(=O)c1cnccc1C(F)(F)F [Flonicamid, N-(cyanomethyl)-4-(trifluoromethyl)-3-pyridinecarboxamide, reference compound]				4.17	4.17
